Laboratory results taken from PubChem BioAssay AID1963858 (Molecular Pharmacology Branch, DTP, NCI, 2024).

Tested on: HOP-62 multicell spheroids with HUVEC/MSC, viability
Test: Anticancer human tumor HOP-62 cell line growth inhibition [KRAS2];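 note: viability read after a week of compound exposure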;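 for viability, T/C: 100% = DMSO vehicle-treated spheroids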
Details: for IC50: curve of first compound; for viability, T/C: stronger effect = lower value
Summary of the method: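 Combination screen of spheroid viability in tumor-cell co-cultures with endothelial (HUVEC) and mesenchymal stem cell stroma. Each agent was tested in half-log dilutions, topping at clinical Cmax or at 10 microM without a known Cmax.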

[1] = second compound 0.1 µM, first compound 0.0316 µM
[2] = second compound 0.1 µM, first compound 0.1 µM
[3] = second compound 0.1 µM, first compound 0.316 µM
[4] = second compound 0.1 µM, first compound 1 µM
[5] = second compound 0.1 µM, first compound 3.16 µM
[6] = second compound 0.1 µM, first compound 10 µM
[7] = second compound 0.316 µM, first compound 0.0316 µM
[8] = second compound 0.316 µM, first compound 0.1 µM
[9] = second compound 0.316 µM, first compound 0.316 µM
[10] = second compound 0.316 µM, first compound 1 µM
[11] = second compound 0.316 µM, first compound 3.16 µM
[12] = second compound 0.316 µM, first compound 10 µM
[13] = second compound 1 µM, first compound 0.0316 µM
[14] = second compound 1 µM, first compound 0.1 µM
[15] = second compound 1 µM, first compound 0.316 µM
[16] = second compound 1 µM, first compound 1 µM
[17] = second compound 1 µM, first compound 3.16 µM
[18] = second compound 1 µM, first compound 10 µM
[19] = second compound 3.16 µM, first compound 0.0316 µM
[20] = second compound 3.16 µM, first compound 0.1 µM
[21] = second compound 3.16 µM, first compound 0.316 µM
[22] = second compound 3.16 µM, first compound 1 µM
[23] = second compound 3.16 µM, first compound 3.16 µM
[24] = second compound 3.16 µM, first compound 10 µM
[25] = second compound 10 µM, first compound 0.0316 µM
[26] = second compound 10 µM, first compound 0.1 µM
[27] = second compound 10 µM, first compound 0.316 µM
[28] = second compound 10 µM, first compound 1 µM
[29] = second compound 10 µM, first compound 3.16 µM
[30] = second compound 10 µM, first compound 10 µM
[31] = second compound 0.1 µM, first compound 0.000316 µM
[32] = second compound 0.1 µM, first compound 0.001 µM
[33] = second compound 0.1 µM, first compound 0.00316 µM
[34] = second compound 0.1 µM, first compound 0.01 µM
[35] = second compound 0.316 µM, first compound 0.000316 µM
[36] = second compound 0.316 µM, first compound 0.001 µM
[37] = second compound 0.316 µM, first compound 0.00316 µM
[38] = second compound 0.316 µM, first compound 0.01 µM
[39] = second compound 1 µM, first compound 0.000316 µM
[40] = second compound 1 µM, first compound 0.001 µM
[41] = second compound 1 µM, first compound 0.00316 µM
[42] = second compound 1 µM, first compound 0.01 µM
[43] = second compound 3.16 µM, first compound 0.000316 µM
[44] = second compound 3.16 µM, first compound 0.001 µM
[45] = second compound 3.16 µM, first compound 0.00316 µM
[46] = second compound 3.16 µM, first compound 0.01 µM
[47] = second compound 10 µM, first compound 0.000316 µM
[48] = second compound 10 µM, first compound 0.001 µM
[49] = second compound 10 µM, first compound 0.00316 µM
[50] = second compound 10 µM, first compound 0.01 µM

Structure (SMILES) | IC50 (second compound 0.1 µM) [nM] | IC50 (second compound 0.316 µM) [nM] | IC50 (second compound 1 µM) [nM] | IC50 (second compound 3.16 µM) [nM] | IC50 (second compound 10 µM) [nM] | viability, T/C [1] [%] | viability, T/C [2] [%] | viability, T/C [3] [%] | viability, T/C [4] [%] | viability, T/C [7] [%] | viability, T/C [8] [%] | viability, T/C [9] [%] | viability, T/C [10] [%] | viability, T/C [13] [%] | viability, T/C [14] [%] | viability, T/C [15] [%] | viability, T/C [19] [%] | viability, T/C [20] [%] | viability, T/C [25] [%] | viability, T/C [26] [%] | other results
CC(C)NCC(C(=O)N1CCN(c2ncnc3c2C(C)CC3O)CC1)c1ccc(Cl)cc1 (stereo not given) + CC1OCC2(CCN(c3cnc(Sc4ccnc(N)c4Cl)c(N)n3)CC2)C1N | 389 | 235 | 52.1 | < 31.6 | < 31.6 | 88.7 | 81.9 | 53.5 | 27.6 | 65.7 | 66.2 | 43.4 | 21.7 | 55.9 | 42.3 | 20.5 | 37.6 | 27.2 | 25.7 | 20.4 | viability, T/C [5]: 11.3%; viability, T/C [6]: 7.62%; viability, T/C [11]: 8.04%; viability, T/C [12]: 5.81%; viability, T/C [16]: 7.92%; viability, T/C [17]: 6.64%; viability, T/C [18]: 4.61%; viability, T/C [21]: 13%; viability, T/C [22]: 7.62%; viability, T/C [23]: 4.7%; viability, T/C [24]: 3.86%; viability, T/C [27]: 14.5%; viability, T/C [28]: 7.49%; viability, T/C [29]: 4.67%; viability, T/C [30]: 3.48%
CC(C)n1nc(-c2ccc3oc(N)nc3c2)c2c(N)ncnc21 + CC1OCC2(CCN(c3cnc(Sc4ccnc(N)c4Cl)c(N)n3)CC2)C1N | 1.56 | 0.678 | 0.392 | < 0.316 | < 0.316 | 12.4 | 8.07 |  |  | 10 | 7.36 |  |  | 8.66 | 6.23 |  | 6.71 | 4.89 | 5.54 | 4.55 | viability, T/C [31]: 76.5%; viability, T/C [32]: 65.1%; viability, T/C [33]: 25.9%; viability, T/C [34]: 16.4%; viability, T/C [35]: 69.2%; viability, T/C [36]: 40.2%; viability, T/C [37]: 21.3%; viability, T/C [38]: 12%; viability, T/C [39]: 54.4%; viability, T/C [40]: 30.5%; viability, T/C [41]: 11.9%; viability, T/C [42]: 8.81%; viability, T/C [43]: 26.6%; viability, T/C [44]: 22.4%; viability, T/C [45]: 10.6%; viability, T/C [46]: 7.28%; viability, T/C [47]: 22.5%; viability, T/C [48]: 18.2%; viability, T/C [49]: 10.6%; viability, T/C [50]: 7%
CC1(C)CCC(CN2CCN(c3ccc(C(=O)NS(=O)(=O)c4ccc(NCC5CCOCC5)c([N+](=O)[O-])c4)c(Oc4cnc5[nH]ccc5c4)c3)CC2)=C(c2ccc(Cl)cc2)C1 + CC1OCC2(CCN(c3cnc(Sc4ccnc(N)c4Cl)c(N)n3)CC2)C1N | 3720 | 3280 | 1310 | < 31.6 | < 31.6 | 76.5 | 73 | 70 | 72 | 72.3 | 62.2 | 68.3 | 67.6 | 62.3 | 54.4 | 52 | 47.9 | 45 | 37.5 | 32.9 | viability, T/C [5]: 54.3%; viability, T/C [6]: 17.2%; viability, T/C [11]: 51.1%; viability, T/C [12]: 12.6%; viability, T/C [16]: 50.1%; viability, T/C [17]: 44.6%; viability, T/C [18]: 10.6%; viability, T/C [21]: 36.6%; viability, T/C [22]: 26.7%; viability, T/C [23]: 18.1%; viability, T/C [24]: 10.7%; viability, T/C [27]: 32%; viability, T/C [28]: 26.6%; viability, T/C [29]: 26.5%; viability, T/C [30]: 6.62%
CCN1CCN(Cc2ccc(Nc3ncc(F)c(-c4cc(F)c5nc(C)n(C(C)C)c5c4)n3)nc2)CC1 + CC1OCC2(CCN(c3cnc(Sc4ccnc(N)c4Cl)c(N)n3)CC2)C1N | > 1000 | 370 | 67.5 | < 3.16 | < 3.16 | 87.1 | 83.7 | 75.4 | 50.8 | 73.1 | 73 | 49 | 37.2 | 53 | 42.1 | 42.7 | 33.5 | 27 | 23.4 | 21.5 | viability, T/C [33]: 104%; viability, T/C [34]: 93.8%; viability, T/C [37]: 96.8%; viability, T/C [38]: 76.6%; viability, T/C [41]: 65.3%; viability, T/C [42]: 73.2%; viability, T/C [16]: 25.9%; viability, T/C [45]: 33.7%; viability, T/C [46]: 41.3%; viability, T/C [21]: 25.7%; viability, T/C [22]: 20.1%; viability, T/C [49]: 32.6%; viability, T/C [50]: 27.4%; viability, T/C [27]: 23.9%; viability, T/C [28]: 13.9%
CCNC(=O)CC1N=C(c2ccc(Cl)cc2)c2cc(OC)ccc2-n2c(C)nnc21 (stereo not given) + CC1OCC2(CCN(c3cnc(Sc4ccnc(N)c4Cl)c(N)n3)CC2)C1N | 250 | 200 | 136 | 50.8 | < 31.6 | 103 | 74.5 | 45.2 | 27.6 | 96.2 | 65.5 | 40.9 | 25.1 | 75.9 | 55.6 | 34.5 | 60 | 35.5 | 32.4 | 21.7 | viability, T/C [5]: 28.6%; viability, T/C [6]: 28.1%; viability, T/C [11]: 24.3%; viability, T/C [12]: 23.6%; viability, T/C [16]: 19.8%; viability, T/C [17]: 22.1%; viability, T/C [18]: 19.7%; viability, T/C [21]: 25.9%; viability, T/C [22]: 21.2%; viability, T/C [23]: 16.1%; viability, T/C [24]: 15.3%; viability, T/C [27]: 18.6%; viability, T/C [28]: 11.5%; viability, T/C [29]: 11.7%; viability, T/C [30]: 9.82%
Cn1ncnc1[C@H]1c2n[nH]c(=O)c3cc(F)cc(c23)N[C@@H]1c1ccc(F)cc1 + CC1OCC2(CCN(c3cnc(Sc4ccnc(N)c4Cl)c(N)n3)CC2)C1N | > 100 | > 100 | 1.39 | < 0.316 | < 0.316 | 80.2 | 73 |  |  | 72.5 | 52.6 |  |  | 32.7 | 37.9 |  | 17.5 | 22.5 | 24.1 | 21.1 | viability, T/C [31]: 88.7%; viability, T/C [32]: 97.9%; viability, T/C [33]: 94.1%; viability, T/C [34]: 87.1%; viability, T/C [35]: 86.5%; viability, T/C [36]: 66.8%; viability, T/C [37]: 62.7%; viability, T/C [38]: 69.3%; viability, T/C [39]: 65.2%; viability, T/C [40]: 56.9%; viability, T/C [41]: 29.8%; viability, T/C [42]: 31.4%; viability, T/C [43]: 40.6%; viability, T/C [44]: 31.7%; viability, T/C [45]: 37%; viability, T/C [46]: 23.7%; viability, T/C [47]: 36.9%; viability, T/C [48]: 30.3%; viability, T/C [49]: 31%; viability, T/C [50]: 27.5%
